Results as given in ChEMBL document CHEMBL3102717, “Synthesis and biological evaluation of amino acid methyl ester conjugates of 2-cyano-3,12-dioxooleana-1,9(11)-dien-28-oic acid against the production of nitric oxide (NO)” (2014).
Active and inactive are the calls of the source. The rule behind the calls is not given here.

Tests used:
RAW264.7 [1] = experiment: Inhibition of IFN-gamma-induced nitric oxide production in mouse RAW264.7 cells at 30 nM after 24 hrs by Griess method; format: functional, cell-based
[2] = Antiproliferative activity against mouse PANC1343 cells assessed as viable cells at 1uM after 72 hrs by MTT assay; format: functional; conditions: PANC-1, 72 h, read-out: Activity
RAW264.7 [3] = experiment: Antioxidant activity in mouse RAW264.7 cells assessed as inhibition of tBHP-induced ROS production at 100 nM pretreated for 18 hrs before challenge measured after 15 mins by H2DCFA-based flow cytometry; format: functional, cell-based
RAW264.7 [4] = experiment: Antioxidant activity in mouse RAW264.7 cells assessed as inhibition of tBHP-induced ROS production at 10 nM pretreated for 18 hrs before challenge measured after 15 mins by H2DCFA-based flow cytometry; format: functional
[5] = target: T1, Nuclear factor erythroid 2-related factor 2 (Mus musculus) (UniProt Q60795); experiment: Induction of Nrf2-mediated HO-1 expression in mouse RAW264.7 cells at 30 to 300 nM after 6 hrs by Western blot method; format: cell-based
T1 sequence (whole entry): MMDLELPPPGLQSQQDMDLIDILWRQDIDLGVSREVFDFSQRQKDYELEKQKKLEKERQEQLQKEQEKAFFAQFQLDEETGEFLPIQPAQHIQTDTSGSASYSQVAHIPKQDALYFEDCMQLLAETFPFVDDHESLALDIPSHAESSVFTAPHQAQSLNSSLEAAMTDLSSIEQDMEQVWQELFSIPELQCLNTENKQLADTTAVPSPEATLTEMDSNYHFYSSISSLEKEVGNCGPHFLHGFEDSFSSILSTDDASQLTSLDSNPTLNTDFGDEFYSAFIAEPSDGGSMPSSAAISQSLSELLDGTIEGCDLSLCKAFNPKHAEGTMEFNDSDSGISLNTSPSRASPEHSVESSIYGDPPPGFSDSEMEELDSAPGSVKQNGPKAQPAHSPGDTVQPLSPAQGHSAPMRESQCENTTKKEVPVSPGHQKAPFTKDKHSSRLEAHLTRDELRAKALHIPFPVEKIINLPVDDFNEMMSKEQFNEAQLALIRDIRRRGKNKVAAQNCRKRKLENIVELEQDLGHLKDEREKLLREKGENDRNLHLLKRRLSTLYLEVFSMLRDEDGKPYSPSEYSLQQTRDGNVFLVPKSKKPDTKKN

Q: Which inhibition (RAW264.7 [1]) does the source give for `COC(=O)C(Cc1ccc(O)cc1)NC(=O)[C@]12CCC(C)(C)C[C@H]1[C@H]1C(=O)C=C3[C@@]4(C)C=C(C#N)C(=O)C(C)(C)[C@@H]4CC[C@@]3(C)[C@]1(C)CC2` (some centres undefined) here?
A: Its inhibition is “inactive”.

Q: With `COC(=O)C(Cc1ccccc1)NC(=O)[C@]12CCC(C)(C)C[C@H]1[C@H]1C(=O)C=C3[C@@]4(C)C=C(C#N)C(=O)C(C)(C)[C@@H]4CC[C@@]3(C)[C@]1(C)CC2` (some centres undefined) as the compound, how does the inhibition (RAW264.7 [1]) read?
A: Its inhibition is “inactive”.

Q: Which inhibition (RAW264.7 [1]) does the source give for `COC(=O)C(Cc1cnc[nH]1)NC(=O)[C@]12CCC(C)(C)C[C@H]1[C@H]1C(=O)C=C3[C@@]4(C)C=C(C#N)C(=O)C(C)(C)[C@@H]4CC[C@@]3(C)[C@]1(C)CC2` (some centres undefined) here?
A: The inhibition was “inactive”.

Q: Which viability at 1 µM [2] does the source give for `COC(=O)C(NC(=O)[C@]12CCC(C)(C)C[C@H]1[C@H]1C(=O)C=C3[C@@]4(C)C=C(C#N)C(=O)C(C)(C)[C@@H]4CC[C@@]3(C)[C@]1(C)CC2)C(C)C` (some centres undefined) here?
A: Its viability at 1 µM is less than 10%.

Q: And the inhibition (RAW264.7 [3])?
A: Its inhibition is “Active”.

Q: What about the inhibition at 0.01 µM (RAW264.7 [4]) of the same compound?
A: The inhibition at 0.01 µM was 50%.

Q: And the HO-1 expression induction [5]?
A: Its HO-1 expression induction is “Active”.

Q: And the inhibition (RAW264.7 [1])?
A: The inhibition was “Active”.

Q: For `COC(=O)CC(NC(=O)[C@]12CCC(C)(C)C[C@H]1[C@H]1C(=O)C=C3[C@@]4(C)C=C(C#N)C(=O)C(C)(C)[C@@H]4CC[C@@]3(C)[C@]1(C)CC2)C(=O)OC` (some centres undefined), which inhibition (RAW264.7 [1]) is on record?
A: The inhibition was “inactive”.

Q: Which viability at 1 µM [2] does the source give for `COC(=O)C(CO)NC(=O)[C@]12CCC(C)(C)C[C@H]1[C@H]1C(=O)C=C3[C@@]4(C)C=C(C#N)C(=O)C(C)(C)[C@@H]4CC[C@@]3(C)[C@]1(C)CC2` (some centres undefined) here?
A: The viability at 1 µM was less than 10%.

Q: What about the inhibition (RAW264.7 [3]) of the same compound?
A: Its inhibition is “Active”.

Q: And the inhibition at 0.01 µM (RAW264.7 [4])?
A: Its inhibition at 0.01 µM is 50%.

Q: What about the HO-1 expression induction [5] of the same compound?
A: The HO-1 expression induction was “Active”.

Q: What about the inhibition (RAW264.7 [1]) of the same compound?
A: Its inhibition is “Active”.

Q: With `COC(=O)C(C)NC(=O)[C@]12CCC(C)(C)C[C@H]1[C@H]1C(=O)C=C3[C@@]4(C)C=C(C#N)C(=O)C(C)(C)[C@@H]4CC[C@@]3(C)[C@]1(C)CC2` (some centres undefined) as the compound, how does the viability at 1 µM [2] read?
A: The viability at 1 µM was less than 10%.

Q: And the inhibition at 0.01 µM (RAW264.7 [4])?
A: The inhibition at 0.01 µM was 50%.

Q: And the HO-1 expression induction [5]?
A: The HO-1 expression induction was “Active”.

Q: And the inhibition (RAW264.7 [1])?
A: Its inhibition is “Active”.

Q: For `COC(=O)[C@]12CCC(C)(C)C[C@H]1[C@H]1C(=O)C=C3[C@@]4(C)C=C(C#N)C(=O)C(C)(C)[C@@H]4CC[C@@]3(C)[C@]1(C)CC2`, which inhibition (RAW264.7 [3]) is on record?
A: The inhibition was “Active”.

Q: For `COC(=O)C(CC(C)C)NC(=O)[C@]12CCC(C)(C)C[C@H]1[C@H]1C(=O)C=C3[C@@]4(C)C=C(C#N)C(=O)C(C)(C)[C@@H]4CC[C@@]3(C)[C@]1(C)CC2` (some centres undefined), which inhibition (RAW264.7 [1]) is on record?
A: The inhibition was “inactive”.

Q: With `COC(=O)C1CCCN1C(=O)[C@]12CCC(C)(C)C[C@H]1[C@H]1C(=O)C=C3[C@@]4(C)C=C(C#N)C(=O)C(C)(C)[C@@H]4CC[C@@]3(C)[C@]1(C)CC2` (some centres undefined) as the compound, how does the inhibition (RAW264.7 [1]) read?
A: The inhibition was “inactive”.

Q: Which inhibition (RAW264.7 [1]) does the source give for `COC(=O)C(Cc1c[nH]c2ccccc12)NC(=O)[C@]12CCC(C)(C)C[C@H]1[C@H]1C(=O)C=C3[C@@]4(C)C=C(C#N)C(=O)C(C)(C)[C@@H]4CC[C@@]3(C)[C@]1(C)CC2` (some centres undefined) here?
A: The inhibition was “inactive”.

Q: Which results are given for `CCNC(=O)[C@]12CCC(C)(C)C[C@H]1[C@H]1C(=O)C=C3[C@@]4(C)C=C(C#N)C(=O)C(C)(C)[C@@H]4CC[C@@]3(C)[C@]1(C)CC2`?
A: HO-1 expression induction [5]: Active; inhibition (RAW264.7 [1]): Active
